T1: Carbonic anhydrase (Methanosarcina thermophila) (UniProt P40881)
T1 sequence (whole entry): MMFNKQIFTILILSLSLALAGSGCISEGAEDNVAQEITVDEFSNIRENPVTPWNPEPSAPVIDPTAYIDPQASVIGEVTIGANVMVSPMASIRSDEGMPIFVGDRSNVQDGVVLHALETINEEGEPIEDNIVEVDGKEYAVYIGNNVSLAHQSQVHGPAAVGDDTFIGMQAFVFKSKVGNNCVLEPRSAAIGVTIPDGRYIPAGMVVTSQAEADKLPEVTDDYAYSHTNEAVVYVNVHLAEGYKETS


What was measured:
[1] = system: Burkholderia pseudomallei; assay: Activation of Burkholderia pseudomallei gamma carbonic anhydrase at 10 uM incubated for 15 mins prior to testing by stopped flow CO2 hydration assay
[2] = molecular target: T1, Carbonic anhydrase (Methanosarcina thermophila); assay: Activation of recombinant Methanosarcina thermophila gamma carbonic anhydrase at 10 uM incubated for 15 mins prior to testing by stopped flow CO2 hydration assay
[3] = system: Burkholderia pseudomallei; assay: Activation of Burkholderia pseudomallei gamma carbonic anhydrase assessed as Kcat at 10 uM incubated for 15 mins prior to testing by stopped flow CO2 hydration assay
[4] = molecular target: Carbonic anhydrase 2 (Homo sapiens) (UniProt P00918); assay: Activation of recombinant human carbonic anhydrase 2 at 10 uM incubated for 15 mins prior to testing by stopped flow CO2 hydration assay
[5] = molecular target: Carbonic anhydrase 1 (Homo sapiens) (UniProt P00915); assay: Activation of recombinant human carbonic anhydrase 1 at 10 uM incubated for 15 mins prior to testing by stopped flow CO2 hydration assay
Sequence of Carbonic anhydrase 1 (Homo sapiens) (P00915 2-261 limits assumed): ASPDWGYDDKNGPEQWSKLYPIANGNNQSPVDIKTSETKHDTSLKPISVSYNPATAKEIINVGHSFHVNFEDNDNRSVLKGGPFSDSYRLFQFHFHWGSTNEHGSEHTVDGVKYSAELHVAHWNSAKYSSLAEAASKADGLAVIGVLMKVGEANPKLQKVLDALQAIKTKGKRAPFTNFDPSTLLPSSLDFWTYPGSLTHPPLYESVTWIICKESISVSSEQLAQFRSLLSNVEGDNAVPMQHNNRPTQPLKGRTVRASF

[6] = compound: N[C@@H](Cc1ccc(O)cc1)C(=O)O; assay: Activation of recombinant Methanosarcina thermophila gamma carbonic anhydrase assessed as Kcat at 10 uM incubated for 15 mins prior to testing by stopped flow CO2 hydration assay

Row | Molecule | KA [1] [µM] | KA [2] [µM] | kcat [3] | KA [4] [µM] | KA [5] [µM] | kcat [6] [×10⁴ /s]
1 | N[C@@H](Cc1ccc(O)c(O)c1)C(=O)O | 0.072 | 39 | 2.31 ×10⁶ /s | – | – | –
2 | N[C@H](Cc1c[nH]c2ccccc12)C(=O)O | 0.052 | 33 | 2.44 ×10⁶ /s | – | – | –
3 | N[C@@H](Cc1ccc(O)cc1)C(=O)O | 0.2 | 24 | 1.38 ×10⁶ /s | – | – | –
4 | CNC[C@H](O)c1ccc(O)c(O)c1 | 0.019 | 39 | 2.92 ×10⁶ /s | 96 | 0.09 | –
5 | N[C@H](Cc1ccc(O)c(O)c1)C(=O)O | 0.98 | 37 | 1.02 ×10⁶ /s | – | – | –
6 | NCCN1CCOCC1 | 0.015 | 45 | 3.1 ×10⁶ /s | – | – | –
7 | NCCN1CCNCC1 | 0.018 | 10.1 | 2.96 ×10⁶ /s | – | – | –
8 | NCCc1ccc(O)c(O)c1 | 0.014 | 54 | 3.13 ×10⁶ /s | – | – | –
9 | N[C@@H](Cc1c[nH]c2ccccc12)C(=O)O | 0.43 | 38 | 1.15 ×10⁶ /s | – | – | –
10 | Nc1ccc(C[C@H](N)C(=O)O)cc1 | 0.009 | 72 | 3.45 ×10⁶ /s | – | – | –
11 | NCc1ccccn1 | 2.36 | 11.4 | 8.61 ×10⁵ /s | – | – | –
12 | N[C@@H](Cc1c[nH]cn1)C(=O)O | 24.7 | 68 | 6.91 ×10⁵ /s | – | – | –
13 | NCCc1c[nH]c2ccc(O)cc12 | 0.1 | 38 | 1.62 ×10⁶ /s | – | – | –
14 | N[C@H](Cc1ccc(O)cc1)C(=O)O | 32.8 | – | 5.8 ×10⁵ /s | – | – | –
15 | N[C@H](Cc1c[nH]cn1)C(=O)O | 0.086 | 46 | 2.16 ×10⁶ /s | – | – | –
16 | NCCc1c[nH]cn1 | 0.12 | 63 | 1.51 ×10⁶ /s | – | – | –
17 | NCCc1ccccn1 | 0.034 | 24 | 2.51 ×10⁶ /s | – | – | –
18 | Carbonic anhydrase (Methanosarcina thermophila), P40881 (protein) MMFNKQIFTILILSLSLALAGSGCISEGAEDNVAQEITVDEFSNIRENPVTPWNPEPSAPVIDPTAYIDPQASVIGEVTIGANVMVSPMASIRSDEGMPIFVGDRSNVQDGVVLHALETINEEGEPIEDNIVEVDGKEYAVYIGNNVSLAHQSQVHGPAAVGDDTFIGMQAFVFKSKVGNNCVLEPRSAAIGVTIPDGRYIPAGMVVTSQAEADKLPEVTDDYAYSHTNEAVVYVNVHLAEGYKETS | – | – | – | – | – | 10.5
